Read-outs that look alike come from different tables or passages of the source.

For one data set, the system named is leishmaniasis. The note with it: cited from earlier work.
Data set [1] deals with L. infantum promastigotes. Nature of the data set: Phase-contrast and SEM morphology of parasites. In kind it is cell-based, Leishmania infantum. Conditions: 24 and 48 hours of incubation with SPT. On the procedure: In parallel to this, Leishmania parasites incubated with SPT at different concentrations were morphologically examined under scanning electron microscopy.
The subject of data set [2] is L. infantum promastigotes. Briefly: Mitochondrial membrane potential, Rhodamine 123. In kind it is cell-based, Leishmania infantum. On the procedure: Mitochondrial membrane potential (ΔΨPm) is measured by using Rhodamine 123 mitochondrial specific fluorescent dye (Sigma-Aldrich). In summary, cells were seeded in a 48-well plate at 300.000 parasites/well. The following day, parasites are treated with SPT at various concentrations (50-400 uM) for 24 and 48 hours. After incubation, cells are resuspended in serum-free RPMI containing 10 μM Rhodamine 123 and incubated in the dark at 37-C for 30 minutes. They are then centrifuged and washed twice with 1×DPBS. The cell suspension is transferred to a 96-well plate and fluorescence intensities are measured at 490 nm excitation and 515 nm emission by using a spectrophoto-fluorimeter (Varioskan LUX multimode reader, Thermo Scientific). Absorbance is evaluated as a fold change with respect to the negative control group.

For data set [3], the system named is macrophages infected with L. infantum. Nature of the data set: Infection rate of infected macrophages by flow cytometry. The note with it: SPT 50, 75, 100, 150, 200 and 400 μM; 24, 48 and 72 hours. In kind it is cell-based, Leishmania infantum. On the procedure:
RAW264.7 macrophage cells and L. infantum promastigotes were stained with PKH26 (Red Fluorescent Cell Linker Kit, Sigma-Aldrich) and PKH67 (Green Fluorescent Cell Linker Kit, Sigma-Aldrich), respectively, according to the procedure described previously in the article by Islek et al. (2021). A total cell concentration of 10^7 cells/ml was used. Before infection, the staining rate of parasites and cells was determined by flow cytometry.
The effect of SPT on the proliferation of macrophage cells infected with parasites is analyzed. In summary, macrophages are infected with parasites at 37° C. at a ratio of 10:1 (parasite: macrophage). After 3 and a half hours, infected macrophages are washed with medium to remove the remaining parasites. Infected macrophages are left to incubate with SPT at different concentration ranges at 37° C. for 3 days, fixed at the end of 3 days and the infection rate is determined by flow cytometer. The percentage of infection is determined according to the following formula: […]

Data set [4] relates to Leishmania infantum (MHOM/MA/67/ITMA-P263) promastigotes. Briefly: Resazurin / Alamar Blue viability assay on promastigotes. In kind it is cell-based. Conditions: for parasite viability: SPT above 100 μM. On the procedure:
Leishmania infantum (MHOM/MA/67/ITMA-P263) promastigotes are incubated in RPMI medium (heat inactivated 10% fetal bovine serum, 2 mM L-glutamine, 20 mM HEPES, 100 U/ml penicillin, 100 μg/ml streptomycin) at 27° C. Parasites reaching the logarithmic phase (10^6/ml) are made infective.
Leishmania parasites are incubated in culture medium and the effect of SPT on the proliferation of their promastigotes is analyzed. In summary, Leishmania infantum (MHOM/MA/67/ITMA-P263) promastigotes are incubated in RPMI medium (heat inactivated 10% fetal bovine serum, 2 mM L-glutamine, 20 mM Hepes, 100 U/ml penicillin, 100 μg/ml streptomycin) at 27° C. […] The viability of the parasites is determined by applying Alamar Blue assay. By obtaining IC50 values from the samples whose fluorescence intensities are read according to the Alamar Blue assay protocol, the activities of SPT are determined.

On to `C[C@@H]1[C@H](O)[C@@H](C)/C=C/C=C/C=C/C=C/C=C/C=C/C=C/[C@H](O[C@@H]2O[C@H](C)[C@@H](O)[C@H](N)[C@@H]2O)C[C@@H]2O[C@](O)(C[C@@H](O)C[C@@H](O)[C@H](O)CC[C@@H](O)C[C@@H](O)CC(=O)O[C@H]1C)C[C@H](O)[C@H]2C(=O)O` [Amphotericin B], for which, in the data set on leishmaniasis (6-month therapy), the “cure (comparison data)” value was 97%. Moreover, in the data set with leishmaniasis (cases where antimonial resistance is observed), the cure rate is recorded as roughly 100%.

Take `CCCCCCCCCCCCCCCCOP(=O)([O-])OCC[N+](C)(C)C` [Miltefosine]: in the data set with leishmaniasis (miltefosine data compared with 6-month Amphotericin B therapy), the “cure (comparison data)” value is given as 94%. For the same compound, in the data set with leishmaniasis (oral, 3-4-week treatment), the cure level is given as 95-100%.

As to `O.O.O.O.[Na+].[O-]B1OO1` [SPT, sodium perborate tetrahydrate], the “cell number and morphology by microscopy” value in data set [1] is listed as “dose-dependent decrease in cell number”. Further, the mitochondrial membrane potential in data set [2] (SPT 100 μM, 24 hours) stood at 52.2%; in data set [2] (SPT 100 μM, 48 hours), 32.8%; in data set [2] (SPT 150 μM, 24 hours), 39.1%; in data set [2] (SPT 150 μM, 48 hours), 34.1%; in data set [2] (SPT 200 μM, 24 hours), 57.5%; in data set [2] (SPT 200 μM, 48 hours) it was 41.5%. Further, the mitochondrial membrane potential was 44.6% in data set [2] (SPT 400 μM, 24 hours); 30.1% in data set [2] (SPT 400 μM, 48 hours); “below 53%” in data set [2] (SPT ≥100 μM, 24 hours); “below 35%” in data set [2] (SPT ≥100 μM, 48 hours). Moreover, the “percentage of mitochondrial membrane potential” value in data set [2] (SPT ≤75 uM, 24 and 48 hours) is recorded as “above 80%”. For the same compound, the infection rate result in data set [3] was “infection rate did not increase regardless of time and concentration”. The IC50 in data set [4] (72 hours) stood at 72 ± 7.51 µM. Besides, the cell viability result in data set [4] (SPT 75 μM, 24 hours) is on record as “below 80%”; in data set [4] (SPT 75 μM, 48 hours) it was less than 55%; in data set [4] (SPT ≤50 uM, 24, 48 and 72 hours), “above 80%”. The same compound returned a viability of promastigotes in data set [4] (SPT 75 μM, 72 hours) of 50%. For the same compound, the “reduction in parasite viability” value in data set [4] (SPT 100, 125, 150 and 200 μM, 72 hours) is recorded as “approximately 80%”. The parasite viability in data set [4] (24 hours) is less than 33%; in data set [4] (48 hours), less than 25%.

A word on the IC50: it is the concentration that gives 50% inhibition. In general, cell viability refers to a per cent measure of how many cells are alive, often set against a control.

These data come from patent US20260256833A1, “USE OF BORON FOR THE TREATMENT OF LEISHMANIASIS DISEASE” (YEDITEPE UNIVERSITESI, priority 2023, published 2026).
